According to US20110150767A1, “ALPHA-SUBSTITUTED AND ALPHA-UNSUBSTITUTED AROMATIC AMINO ACID DERIVATIVES AND COMPOSITIONS THEREOF FOR USE TO TREAT, DIAGNOSE, OR MONITOR A MEDICAL CONDITION” (priority 2009, published 2011):

How the values were obtained:
[1] = biological target: T1, human L-type amino acid transporter 2 (LAT2; S2-hLAT2 cells) (Homo sapiens, UniProt Q9UHI5); experiment: Inhibition of L-[14C]leucine uptake in S2-LAT2 cells; format: cell-based; settings: inhibition of 1.0 μM L-[14C]leucine uptake, 1.0 min, 37° C., NI = no inhibition at 100 μM
T1 construct: expressed in transfected cells; host or cells: S2 cells (S2-hLAT2 / S2-LAT2); mammalian cell line described in Morimoto et al., J Pharmacol Sci 2008, 108, 505-516
T1 sequence (Q9UHI5 1-535): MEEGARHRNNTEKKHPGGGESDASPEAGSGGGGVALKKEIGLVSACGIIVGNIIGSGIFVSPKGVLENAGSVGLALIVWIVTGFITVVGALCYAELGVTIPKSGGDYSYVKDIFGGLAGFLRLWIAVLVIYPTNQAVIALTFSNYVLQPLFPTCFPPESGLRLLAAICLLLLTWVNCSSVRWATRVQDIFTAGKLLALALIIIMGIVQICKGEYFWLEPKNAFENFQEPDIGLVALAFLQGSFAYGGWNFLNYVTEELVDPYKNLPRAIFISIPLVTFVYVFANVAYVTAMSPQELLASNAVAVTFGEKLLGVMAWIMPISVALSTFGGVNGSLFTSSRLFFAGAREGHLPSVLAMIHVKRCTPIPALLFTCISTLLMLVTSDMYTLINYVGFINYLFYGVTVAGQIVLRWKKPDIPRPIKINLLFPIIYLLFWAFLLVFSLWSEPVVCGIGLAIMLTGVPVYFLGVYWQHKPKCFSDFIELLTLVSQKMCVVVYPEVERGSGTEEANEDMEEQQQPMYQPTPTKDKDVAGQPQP
T1 sequence (P08195 1-529 partner): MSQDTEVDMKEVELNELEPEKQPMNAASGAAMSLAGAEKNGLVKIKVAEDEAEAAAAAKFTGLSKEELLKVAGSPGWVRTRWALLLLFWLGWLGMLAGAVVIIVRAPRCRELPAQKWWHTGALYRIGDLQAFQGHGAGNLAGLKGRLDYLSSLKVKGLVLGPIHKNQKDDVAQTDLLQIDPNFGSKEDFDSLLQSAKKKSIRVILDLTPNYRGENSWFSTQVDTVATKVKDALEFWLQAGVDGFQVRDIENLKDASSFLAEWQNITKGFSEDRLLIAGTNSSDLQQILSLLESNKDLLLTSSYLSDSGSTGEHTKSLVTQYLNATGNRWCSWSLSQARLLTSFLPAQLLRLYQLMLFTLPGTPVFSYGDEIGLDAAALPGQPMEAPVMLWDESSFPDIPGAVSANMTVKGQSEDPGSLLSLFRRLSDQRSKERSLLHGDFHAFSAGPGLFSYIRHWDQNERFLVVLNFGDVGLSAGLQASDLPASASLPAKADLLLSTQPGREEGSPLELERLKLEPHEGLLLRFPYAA
Procedure: (§1) The establishment and characterization of mammalian cell lines expressing human L-type amino acid transporterss (i.e. S2-hLAT1 and S2-hLAT2) has been previously described (Morimoto et al., Journal of Pharmacological Sciences, 2008, 108, 505-516).
(§2) General test procedures are as follows: All test compounds were dissolved in dimethyl sulfoxide (DMSO) to prepare stock solutions at the concentrations of 0.05, 0.5, 5.0 and 50 mM; next, these stock solutions were used and diluted with uptake solution to make final test concentrations of 0.10, 1.00, 10.0 and 100 μM, respectively. Therefore, all compounds used for uptake experiment were in uptake solution containing 0.2% DMSO; experiments are performed in triplicate for each concentration. For control uptake, only DMSO was added into the uptake solution to a final concentration of 0.2%.
(§3) S2-LAT1 and S2-LAT2 cells were seeded (1.3×10^5 cells/well) into 24-well plates and cultured at 33° C. (5% CO2) for 2-3 days until confluent (90%-100% confluence). Uptake experiments were performed at 37° C. The culture medium was removed and washed 3 times with uptake solution (37° C.; Hank's Na^+ free buffer consisting of 125 mM choline chloride, 4.8 mM KCl, 1.3 mM CaCl2, 1.2 mM MgCl2, 25.0 mM HEPES, and 5.0 mM Tris, pH 7.4, supplemented with D-glucose (5.6 mM). The cells were equilibrated in uptake solution (300 μL; 37° C.) for 12 min. The equilibrated solution was removed and uptake solution containing radio-labeled compound (1.0 μM L-[^14C] Leucine) with or without test compound (300 μL) was added to the cells (1.0 min). The test solution was removed and the cells washed 3 times with ice-cold uptake solution. The cells are then solubilized with 0.1N NaOH (0.5 mL) and transferred to scintillation vials. Liquid scintillation fluid (3.0 mL; aquasol-2) was added, mixed and substrate accumulation was measured by counting radioactivity via liquid scintillation counting (LSC; LSC6100, Aloka, Tokyo). The uptake value and % of inhibition were calculated to afford IC50 values.

[2] = biological target: T2, human L-type amino acid transporter 1 (LAT1; S2-hLAT1 cells) (Homo sapiens, UniProt Q01650); experiment: Inhibition of L-[14C]leucine uptake in S2-LAT1 cells; format: cell-based; settings: inhibition of 1.0 μM L-[14C]leucine uptake, 1.0 min, 37° C., NI = no inhibition at 100 μM
T2 construct: expressed in transfected cells; host or cells: S2 cells (S2-hLAT1 / S2-LAT1); mammalian cell line described in Morimoto et al., J Pharmacol Sci 2008, 108, 505-516
T2 sequence (Q01650 whole entry, one chain of several): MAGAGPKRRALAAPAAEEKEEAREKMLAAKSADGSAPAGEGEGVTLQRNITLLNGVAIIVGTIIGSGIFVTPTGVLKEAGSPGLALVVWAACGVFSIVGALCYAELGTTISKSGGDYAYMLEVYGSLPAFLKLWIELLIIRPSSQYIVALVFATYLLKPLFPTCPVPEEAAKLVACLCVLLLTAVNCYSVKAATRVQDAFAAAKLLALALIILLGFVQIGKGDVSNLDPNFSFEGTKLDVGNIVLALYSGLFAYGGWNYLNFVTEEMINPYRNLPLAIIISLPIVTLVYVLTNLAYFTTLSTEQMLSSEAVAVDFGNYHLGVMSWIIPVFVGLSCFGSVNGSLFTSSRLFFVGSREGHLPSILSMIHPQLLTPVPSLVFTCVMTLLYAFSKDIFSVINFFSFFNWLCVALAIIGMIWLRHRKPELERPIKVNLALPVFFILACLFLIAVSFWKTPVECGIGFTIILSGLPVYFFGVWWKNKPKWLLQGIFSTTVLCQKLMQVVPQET
Procedure: as §1, §2, §3

IC50 [1]: 44.9 µM
IC50 [2]: 2.9 µM
Compound: CCOc1ccc(COc2c(Cl)cc(C[C@H](N)C(=O)O)cc2Cl)cc1OCC [compound 141]
